By IC50 is commonly meant the concentration that inhibits the measured activity by half. Low readings indicate inhibition by little substance, high ones a need for much substance.

For this assay, the target named is T1, Fatty-acid amide hydrolase 1 (Homo sapiens, UniProt O00519).
T1 sequence (O00519 whole entry): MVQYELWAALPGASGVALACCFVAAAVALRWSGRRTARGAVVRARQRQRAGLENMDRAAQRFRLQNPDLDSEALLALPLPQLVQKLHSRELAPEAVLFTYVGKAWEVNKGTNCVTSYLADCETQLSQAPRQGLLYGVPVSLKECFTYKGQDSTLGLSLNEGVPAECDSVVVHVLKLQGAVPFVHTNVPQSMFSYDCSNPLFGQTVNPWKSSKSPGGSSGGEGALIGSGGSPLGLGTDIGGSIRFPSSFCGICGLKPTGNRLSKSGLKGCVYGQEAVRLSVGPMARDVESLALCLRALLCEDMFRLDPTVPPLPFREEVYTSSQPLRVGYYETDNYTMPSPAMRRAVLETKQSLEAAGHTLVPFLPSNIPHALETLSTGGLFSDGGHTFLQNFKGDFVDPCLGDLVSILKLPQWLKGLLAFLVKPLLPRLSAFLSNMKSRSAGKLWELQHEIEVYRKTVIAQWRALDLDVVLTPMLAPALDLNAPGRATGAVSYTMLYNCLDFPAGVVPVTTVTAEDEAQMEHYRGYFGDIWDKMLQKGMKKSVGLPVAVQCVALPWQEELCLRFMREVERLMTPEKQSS
In words: Inhibition Assay. The settings on record: pH 8; 22 °C. On the procedure:
the enzyme activity of recombinant human FAAH was measured according to published procedures with minor modifications by either a fluorescent assay using D-AMC or a radioactive assay using tritium-labeled anandamide (3H-anandamide)51 as substrate.

“And” between values parts separate entries of the source, which are not always exact repeats. Equal values may be shown once.

On to `COc1cccc2sc(-c3ccc(NC(=O)C4CCN(S(=O)(=O)c5cccs5)CC4)cc3)nc12` [Benzothiazole-based analogue, 1], for which the IC50 was 2 nM and 2.1 nM and 2.3 nM and 2.5 nM and 5.1 nM and 3.8 nM.

The record behind these values is BindingDB's records for doi:10.1021/bi200552p (Astrazeneca Pharmaceuticals, 2011).
